The assay has as its target Beta-secretase 1 (Homo sapiens, UniProt P56817). The experiment in a line: Inhibition of BACE (unknown origin).

Sequence of Beta-secretase 1 (P56817 whole entry): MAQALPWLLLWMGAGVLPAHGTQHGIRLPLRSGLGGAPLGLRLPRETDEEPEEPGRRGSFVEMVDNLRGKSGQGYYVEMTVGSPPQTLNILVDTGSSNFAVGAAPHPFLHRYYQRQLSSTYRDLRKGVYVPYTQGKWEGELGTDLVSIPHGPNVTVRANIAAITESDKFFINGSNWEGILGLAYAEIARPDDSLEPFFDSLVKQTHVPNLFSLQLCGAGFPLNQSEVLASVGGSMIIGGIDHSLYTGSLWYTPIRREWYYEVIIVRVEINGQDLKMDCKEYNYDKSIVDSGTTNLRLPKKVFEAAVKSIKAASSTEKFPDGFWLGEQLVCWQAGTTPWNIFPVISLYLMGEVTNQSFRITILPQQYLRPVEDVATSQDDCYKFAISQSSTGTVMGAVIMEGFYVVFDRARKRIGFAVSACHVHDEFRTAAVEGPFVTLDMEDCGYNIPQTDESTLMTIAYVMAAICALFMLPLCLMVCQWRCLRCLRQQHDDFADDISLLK

The term Ki denotes a dissociation constant, usually derived from enzyme kinetics or from competition with a known ligand. The compound `CSC[C@@H](NC(=O)[C@@H](NC(=O)OC(C)(C)C)C(C)C)C(=O)CN[C@@H](CC(C)C)[C@@H](O)C[C@@H](C)C(=O)N[C@H](C(=O)NCc1ccccc1)C(C)C` had a Ki of 50.1 µM.

Turning to `CC(C)C[C@H](NCC(=O)[C@H](CC(N)=O)NC(=O)OC(C)(C)C)[C@@H](O)C[C@@H](C)C(=O)N[C@@H](C)C(=O)NCc1ccccc1`, the Ki is 22.4 µM.

Compound `CC(C)C[C@H](NCC(=O)[C@H](CC(N)=O)NC(=O)OC(C)(C)C)[C@@H](O)C[C@@H](C)C(=O)N[C@H](C(=O)NCc1ccccc1)C(C)C` gave a Ki of 3.13 µM.

Take `CSCC[C@@H](NC(=O)OC(C)(C)C)C(=O)CN[C@@H](CC(C)C)[C@@H](O)C[C@@H](C)C(=O)N[C@H](C(=O)NCc1ccccc1)C(C)C`: affinity was put at a Ki of 5.81 µM.

`CSCC[C@@H](NC(=O)[C@@H](NC(=O)OC(C)(C)C)C(C)C)C(=O)CN[C@@H](CC(C)C)[C@@H](O)C[C@@H](CC(C)C)C(=O)N[C@@H](C(=O)NCc1ccccc1)C(C)C`: the affinity, expressed as Ki, was 10.5 µM.

In the case of `CC(C)C[C@H](NCC(=O)[C@H](CC(N)=O)NC(=O)[C@@H](NC(=O)OC(C)(C)C)C(C)C)[C@@H](O)C[C@@H](C)C(=O)N[C@@H](C)C(=O)NCc1ccccc1`, the Ki is 61.4 µM.

`CC(C)C[C@H](NCC(=O)[C@H](CS(C)(=O)=O)NC(=O)OC(C)(C)C)[C@@H](O)C[C@@H](C)C(=O)N[C@H](C(=O)NCc1ccccc1)C(C)C` showed a Ki of 1.13 µM.

Compound `CC(C)C[C@H](NCC(=O)[C@@H](CCS(C)(=O)=O)NC(=O)[C@@H](NC(=O)OC(C)(C)C)C(C)C)[C@@H](O)C[C@@H](C)C(=O)N[C@@H](C(=O)NCc1ccccc1)C(C)C` showed a Ki of 8 µM.

Regarding `CC(C)C[C@H](NCC(=O)[C@H](CS(C)(=O)=O)NC(=O)[C@@H](NC(=O)OC(C)(C)C)C(C)C)[C@@H](O)C[C@@H](C)C(=O)N[C@@H](C(=O)NCc1ccccc1)C(C)C`, the Ki was 9.4 µM.

On to `CSCC[C@@H](NC(=O)[C@@H](NC(=O)OC(C)(C)C)C(C)C)C(=O)CN[C@@H](CC(C)C)[C@@H](O)C[C@@H](C)C(=O)NC(C(=O)NCc1ccccc1)C(C)C` (single isomer, unassigned), for which the Ki is 2.5 µM.

As to `CC(C)C[C@H](NCC(=O)[C@H](CC(N)=O)NC(=O)[C@@H](NC(=O)OC(C)(C)C)C(C)C)[C@@H](O)C[C@@H](C)C(=O)N[C@@H](C(=O)NCc1ccccc1)C(C)C`, the Ki was 5.9 µM.

The values are drawn from ChEMBL document CHEMBL3045025, “Exploring structural requirement and binding interactions of -amyloid cleavage enzyme inhibitors using molecular modeling techniques” (Med Chem Res, 2013).
